In US9572787B2, “Inhibition of renal fibrosis” (Rhode Island Hospital, priority 2011, dated 2017):

How the values were obtained:
NRK-49F cells [1] = test: Serum (5% FBS)-stimulated activation and kinase phosphorylation in renal interstitial fibroblasts (immunoblot); format: cell-based, rat; details: 36 h, suramin 100 μM
Description: Cell Culture and Treatments. NRK-49F cells were cultured in Dulbecco's modified eagle's medium (DMEM) (Sigma-Aldrich, St. Louis, Mo.) containing 5% fetal bovine serum (FBS), 0.5% penicillin and streptomycin in an atmosphere of 5% CO2 and 95% air at 37° C. […] For TGF-β1 treatment, NRK-49F were starved for 24 h by incubation with 0.5% FBS containing DMEM and then exposed to TGF-β1 (0.5-2 ng/ml) for 24 h.
Immunoblot Analysis. Immunoblot analysis of NRK-49F cells and tissue samples were conducted as described previously. The densitometry analysis of immunoblot results was conducted by using NIH Image software (National Institutes of Health, Bethesda, Md.).

NRK-49F cells [2] = test: Cleaved PARP and cleaved caspase-3 (apoptosis hallmarks), immunoblot; format: cell-based, rat; details: 100 μM suramin, 36 h
Description: Cell Culture and Treatments. NRK-49F cells were cultured in Dulbecco's modified eagle's medium (DMEM) (Sigma-Aldrich, St. Louis, Mo.) containing 5% fetal bovine serum (FBS), 0.5% penicillin and streptomycin in an atmosphere of 5% CO2 and 95% air at 37° C. […] Immunoblot Analysis. Immunoblot analysis of NRK-49F cells and tissue samples were conducted as described previously. The densitometry analysis of immunoblot results was conducted by using NIH Image software (National Institutes of Health, Bethesda, Md.).

remnant kidney = test: Remnant kidney model (5/6 nephrectomy), suramin treatment; format: in vivo, rat
Text: The remnant kidney model was created in male Sprague-Dawley rats that weighed 180 to 200 g (Charles River Laboratories, Wilmington, Mass.). 5/6 of normal renal mass was surgically ablated according to our previous protocols. Briefly, 20 animals underwent subtotal nephrectomy involving right subcapsular nephrectomy and infarction of approximately two-thirds of the left kidney by ligation of the posterior and one or two anterior extrarenal branches of the renal artery. In addition, 12 rats underwent a sham operation (laparotomy and manipulation of the renal pedicles). On the second week after surgery, rats were randomly divided into suramin treatment and non-treatment groups. […] 24-hour urine samples were collected in metabolic cages at day 0 and weekly for the determination of urinary levels of protein. Blood was taken weekly for the measurement of serum creatinine. At 28 days after surgery, mean blood pressure was measured, and then all animals were sacrificed and kidneys were collected for further analysis. Assessment of Renal Function and Measurement of Blood Pressure. Urinary protein concentrations were determined by using the colorimetric Lowry assay. Serum creatinine was analyzed using a creatinine kit (Sigma). Mean blood pressure was determined via a catheter inserted into the femoral artery attached to the Transonic Systems pressure transducer (Transonic Systems Inc. Ithaca, N.Y.) in anesthetized rats at the end of experiment. Immunoblot Analysis. Immunoblot analysis of NRK-49F cells and tissue samples were conducted as described previously. The densitometry analysis of immunoblot results was conducted by using NIH Image software (National Institutes of Health, Bethesda, Md.). Immunofluorescent and Immunohistochemical Staining Immunofluorescent and immunohistochemical staining was performed according to the procedure described in our previous studies. For assessment of renal fibrosis, masson trichrome staining was performed according to the protocol provided by the manufacture (Sigma, St. Louis, Mo.). The collagen tissue area (blue color) was quantitatively measured using Image Pro-Plus software (Media-Cybernetics, Silver Spring, Md., USA) by drawing a line around the perimeter of positive staining area, and the average ratio to each microscopic field (400×) was calculated and graphed.

[3] = 10 mg/kg once per week for two weeks
[4] = 10 mg/kg once per week for two weeks, from week 2 after surgery

With `Cc1ccc(C(=O)Nc2ccc(S(=O)(=O)O)c3cc(S(=O)(=O)O)cc(S(=O)(=O)O)c23)cc1NC(=O)c1cccc(NC(=O)Nc2cccc(C(=O)Nc3cc(C(=O)Nc4ccc(S(=O)(=O)O)c5cc(S(=O)(=O)O)cc(S(=O)(=O)O)c45)ccc3C)c2)c1` [Suramin] the “phosphorylation of EGFR” value (NRK-49F cells [1]) was “complete inhibition”, the “phosphorylation of ERK1/2” value (NRK-49F cells [1]) was “complete inhibition” and the “phosphorylation of PDGFR” value (NRK-49F cells [1]) was “complete inhibition”. For the same compound, the “phosphorylation of STAT3” value (NRK-49F cells [1]) was “complete inhibition”, the serum-induced fibronectin expression (NRK-49F cells [1]) was “complete blockade” and the “serum-induced α-SMA expression” value (NRK-49F cells [1]) was “complete blockade”. For the same compound, the “cleavage of caspase-3” value (NRK-49F cells [2]) was “did not induce cleavage”, the “cleavage of poly (ADP-ribose) polymerase (PARP)” value (NRK-49F cells [2]) was “did not induce cleavage” and the “de novo expression of fibronectin in the remnant kidney” value (remnant kidney; [3]) was “abolished”. For the same compound, the “de novo expression of α-SMA in the remnant kidney” value (remnant kidney; [3]) was “abolished”, the “increased expression of type 1 collagen in the remnant kidney” value (remnant kidney; [3]) was “abolished” and the 24-hour proteinuria (remnant kidney; [4]) was “significantly reduced”. For the same compound, the serum creatinine (remnant kidney; [4]) was “significantly reduced”, the “hypertension (mean blood pressure)” value (remnant kidney; 10 mg/kg once per week for two weeks, day 28) was “not significantly affected” and the “kidney histology (glomerular and tubulointerstitial damage)” value (remnant kidney; 10 mg/kg once per week for two weeks, week 4) was “preserved kidney architecture and prevented the glomerular and tubulointerstitial damage”. For the same compound, the “pathological changes in the kidney” value (remnant kidney; suramin alone-treated (sham-operated) animals) was “no obvious pathological changes”.
